Laboratory results taken from patent publication US20240165244A1 (Prelude Therapeutics Incorporated, priority 2022, published 2024).

What was measured:
SMARCA2 = target: T1, SMARCA2 (Homo sapiens, UniProt P51531); experiment: SMARCA2 HiBiT degradation assay in HeLa cells; assay type: cell-based; conditions: 18 hours, highest concentration 10 μM
T1 construct: SMARCA2-HiBiT knock-in Hela monoclonal cell (CS302366); host or cells: HeLa monoclonal cells with heterozygous HiBiT knock-in at the endogenous SMARCA2 locus
In short: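 Degradation was read as Nano-Glo HiBiT lytic luminescence (30-60 min, RT) and fitted to curves. Compounds in 3-fold dilutions up to 10 μM were applied for 18 h at 37 °C. Cells were 2500/well monoclonal HeLa with a heterozygous C-terminal HiBiT tag on SMARCA2.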

SMARCA4 = target: T2, SMARCA4 (Homo sapiens, UniProt P51532); experiment: SMARCA4 HiBiT degradation assay in HeLa cells; assay type: cell-based; conditions: 18 hours, highest concentration 10 μM
T2 construct: SMARCA4-HiBiT knock-in Hela monoclonal cell (CS3023226); host or cells: HeLa monoclonal cells with heterozygous HiBiT knock-in at the endogenous SMARCA4 locus
In short: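 HeLa monoclonal cells with HiBiT knocked into SMARCA4 were seeded at 2500 cells/well, dosed with compound and incubated 18 hours at 37° C. HiBiT signal reported remaining SMARCA4 protein, and values came from curve fitting.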

T1 sequence (P51531 whole entry): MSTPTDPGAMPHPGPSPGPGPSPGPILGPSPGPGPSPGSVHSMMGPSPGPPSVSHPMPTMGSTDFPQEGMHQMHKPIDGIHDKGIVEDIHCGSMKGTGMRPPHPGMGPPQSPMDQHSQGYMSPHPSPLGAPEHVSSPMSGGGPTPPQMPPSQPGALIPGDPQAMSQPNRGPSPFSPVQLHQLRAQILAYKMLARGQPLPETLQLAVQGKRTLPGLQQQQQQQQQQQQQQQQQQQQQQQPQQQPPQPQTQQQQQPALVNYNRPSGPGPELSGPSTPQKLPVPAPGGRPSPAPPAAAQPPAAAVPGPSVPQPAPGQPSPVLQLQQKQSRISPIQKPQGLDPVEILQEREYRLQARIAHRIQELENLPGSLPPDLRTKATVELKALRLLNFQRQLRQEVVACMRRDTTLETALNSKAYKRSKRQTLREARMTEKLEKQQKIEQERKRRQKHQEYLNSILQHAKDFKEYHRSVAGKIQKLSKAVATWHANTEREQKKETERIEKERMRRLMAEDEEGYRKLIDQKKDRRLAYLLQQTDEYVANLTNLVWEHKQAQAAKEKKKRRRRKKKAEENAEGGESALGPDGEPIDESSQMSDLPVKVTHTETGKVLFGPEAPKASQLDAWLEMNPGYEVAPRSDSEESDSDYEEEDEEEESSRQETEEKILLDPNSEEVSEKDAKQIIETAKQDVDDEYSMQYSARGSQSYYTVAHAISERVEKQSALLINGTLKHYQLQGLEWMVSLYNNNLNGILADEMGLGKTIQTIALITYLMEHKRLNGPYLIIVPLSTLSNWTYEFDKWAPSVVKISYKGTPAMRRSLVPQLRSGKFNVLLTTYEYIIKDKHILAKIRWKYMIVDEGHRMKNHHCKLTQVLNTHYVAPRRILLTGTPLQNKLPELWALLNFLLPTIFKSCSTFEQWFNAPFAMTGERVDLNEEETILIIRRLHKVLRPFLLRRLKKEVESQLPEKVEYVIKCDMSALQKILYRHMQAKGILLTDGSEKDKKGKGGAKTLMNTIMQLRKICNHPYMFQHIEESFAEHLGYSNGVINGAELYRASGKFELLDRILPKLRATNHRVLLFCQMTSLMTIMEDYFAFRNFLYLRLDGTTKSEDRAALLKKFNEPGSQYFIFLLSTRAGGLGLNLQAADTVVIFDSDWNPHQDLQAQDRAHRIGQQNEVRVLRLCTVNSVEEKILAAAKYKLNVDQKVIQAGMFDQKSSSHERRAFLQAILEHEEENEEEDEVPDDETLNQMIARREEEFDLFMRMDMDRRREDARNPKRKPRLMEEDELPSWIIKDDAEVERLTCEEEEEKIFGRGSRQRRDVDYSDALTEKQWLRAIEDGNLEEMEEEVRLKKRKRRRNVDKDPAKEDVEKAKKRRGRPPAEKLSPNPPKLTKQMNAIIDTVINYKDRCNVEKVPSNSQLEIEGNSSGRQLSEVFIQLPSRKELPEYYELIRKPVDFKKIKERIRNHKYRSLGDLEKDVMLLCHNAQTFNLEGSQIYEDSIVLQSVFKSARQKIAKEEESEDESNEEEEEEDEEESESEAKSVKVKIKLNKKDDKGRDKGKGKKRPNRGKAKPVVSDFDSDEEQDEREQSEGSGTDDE
T2 sequence (P51532 whole entry): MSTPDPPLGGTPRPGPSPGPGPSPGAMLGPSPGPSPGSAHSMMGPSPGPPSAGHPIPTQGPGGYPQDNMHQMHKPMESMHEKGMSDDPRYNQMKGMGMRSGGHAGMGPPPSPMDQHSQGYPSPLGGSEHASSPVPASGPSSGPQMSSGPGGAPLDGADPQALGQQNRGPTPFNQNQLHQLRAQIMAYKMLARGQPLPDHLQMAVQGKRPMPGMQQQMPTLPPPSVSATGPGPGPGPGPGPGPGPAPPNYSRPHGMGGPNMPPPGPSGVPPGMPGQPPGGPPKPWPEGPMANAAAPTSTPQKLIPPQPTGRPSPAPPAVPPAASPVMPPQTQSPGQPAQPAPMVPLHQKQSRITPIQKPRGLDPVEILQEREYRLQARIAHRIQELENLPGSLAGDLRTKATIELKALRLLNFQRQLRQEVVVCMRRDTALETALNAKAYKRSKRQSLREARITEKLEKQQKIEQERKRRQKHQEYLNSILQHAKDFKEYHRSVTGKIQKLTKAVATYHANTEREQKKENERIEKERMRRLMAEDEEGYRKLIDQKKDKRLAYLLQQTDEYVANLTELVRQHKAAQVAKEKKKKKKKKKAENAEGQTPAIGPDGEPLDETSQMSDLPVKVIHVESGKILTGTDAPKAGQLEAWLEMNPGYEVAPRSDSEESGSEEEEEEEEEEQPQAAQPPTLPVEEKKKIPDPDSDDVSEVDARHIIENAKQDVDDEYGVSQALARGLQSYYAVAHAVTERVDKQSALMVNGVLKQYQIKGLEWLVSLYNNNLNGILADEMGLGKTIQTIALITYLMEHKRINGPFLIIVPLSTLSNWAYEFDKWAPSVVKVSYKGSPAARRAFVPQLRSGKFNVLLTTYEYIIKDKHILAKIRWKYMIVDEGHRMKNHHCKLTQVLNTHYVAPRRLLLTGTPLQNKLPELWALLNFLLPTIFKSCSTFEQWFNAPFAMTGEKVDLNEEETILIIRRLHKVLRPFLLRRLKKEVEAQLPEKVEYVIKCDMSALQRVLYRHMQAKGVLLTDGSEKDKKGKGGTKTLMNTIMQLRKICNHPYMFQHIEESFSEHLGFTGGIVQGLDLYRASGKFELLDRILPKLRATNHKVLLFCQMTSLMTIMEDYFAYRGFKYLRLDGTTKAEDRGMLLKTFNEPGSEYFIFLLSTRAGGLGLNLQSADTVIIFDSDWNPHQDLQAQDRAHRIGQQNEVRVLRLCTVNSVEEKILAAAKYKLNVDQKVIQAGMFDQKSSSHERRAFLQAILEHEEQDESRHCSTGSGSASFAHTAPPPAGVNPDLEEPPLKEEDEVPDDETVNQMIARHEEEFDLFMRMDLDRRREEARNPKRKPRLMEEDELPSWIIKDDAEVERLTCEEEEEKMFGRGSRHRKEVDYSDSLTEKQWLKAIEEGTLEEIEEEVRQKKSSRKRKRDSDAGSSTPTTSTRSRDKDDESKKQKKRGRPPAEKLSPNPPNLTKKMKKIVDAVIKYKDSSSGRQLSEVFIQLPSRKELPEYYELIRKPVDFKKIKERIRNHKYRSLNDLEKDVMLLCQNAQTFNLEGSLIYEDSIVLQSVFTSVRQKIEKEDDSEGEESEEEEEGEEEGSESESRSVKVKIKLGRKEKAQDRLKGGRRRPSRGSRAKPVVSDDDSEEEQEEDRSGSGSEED

Structure (SMILES)	DC50 (SMARCA2) [nM]	Dmax (SMARCA2) [%]	DC50 (SMARCA4) [nM]	Dmax (SMARCA4) [%]
CC[C@]12CNc3nnc(-c4cccc(Cl)c4O)cc3N1C[C@H](Oc1cnc(CN3CCC(c4ccc5c(c4)C(=O)N([C@H]4CCC(=O)NC4=O)C5)CC3)c(Cl)c1)C2 [Example 99, (S)-3-(6-(1-((3-chloro-5-(((6aS,8R)-2-(3-chloro-2-hydroxyphenyl)-6a-ethyl-5,6,6a,7,8,9-hexahydropyrrolo[1′,2′:4,5]pyrazino[2,3-c]pyridazin-8-yl)oxy)pyridin-2-yl)methyl)piperidin-4-yl)-1-oxoisoindolin-2-yl)piperidine-2,6-dione]	< 100	> 75	< 100	50 to 75
CC[C@]12CNc3nnc(-c4cccc(F)c4O)cc3N1C[C@H](Oc1cnc(CN3CCC(c4ccc5c(c4)C(=O)N([C@H]4CCC(=O)NC4=O)C5)CC3)c(C)c1)C2 [Example 104, (S)-3-(6-(1-((5-(((6aS,8R)-6a-ethyl-2-(3-fluoro-2-hydroxyphenyl)-5,6,6a,7,8,9-hexahydropyrrolo[1′,2′:4,5]pyrazino[2,3-c]pyridazin-8-yl)oxy)-3-methylpyridin-2-yl)methyl)piperidin-4-yl)-1-oxoisoindolin-2-yl)piperidine-2,6-dione]	< 100	> 75	< 100	50 to 75
Cc1nc(O[C@H]2CN3c4cc(-c5cccc(F)c5O)nnc4NC[C@]3(C(F)F)C2)cnc1CN1CCN(c2ccc3c(c2)C(=O)N(C2CCC(=O)NC2=O)C3)CC1 (stereo partly drawn) [Example 51, 3-(6-(4-((5-(((6aS,8R)-6a-(difluoromethyl)-2-(3-fluoro-2-hydroxyphenyl)-5,6,6a,7,8,9-hexahydropyrrolo[1′,2′:4,5]pyrazino[2,3-c]pyridazin-8-yl)oxy)-3-methylpyrazin-2-yl)methyl)piperazin-1-yl)-1-oxoisoindolin-2-yl)piperidine-2,6-dione]	< 100	> 75	> 1000	< 50
CC[C@]12CNc3nnc(-c4cccc(C)c4O)cc3N1C[C@H](Oc1nc(C)c(CN3CCC(c4ccc5c(c4)C(=O)N([C@H]4CCC(=O)NC4=O)C5)CC3)c(C)n1)C2 [Example 96, (S)-3-(6-(1-((2-(((6aS,8R)-6a-ethyl-2-(2-hydroxy-3-methylphenyl)-5,6,6a,7,8,9-hexahydropyrrolo[1′,2′:4,5]pyrazino[2,3-c]pyridazin-8-yl)oxy)-4,6-dimethylpyrimidin-5-yl)methyl)piperidin-4-yl)-1-oxoisoindolin-2-yl)piperidine-2,6-dione]	< 100	> 75	100 to 1000	< 50
COc1cc(O[C@@H]2C[C@@H]3CNc4nnc(-c5cccc(Cl)c5O)cc4N3C2)ccc1CN1CCN(c2ccc3c(c2)C(=O)N(C2CCC(=O)NC2=O)C3)CC1 (stereo partly drawn) [Example 21, 3-(6-(4-(4-(((6aR,8R)-2-(3-chloro-2-hydroxyphenyl)-5,6,6a,7,8,9-hexahydropyrrolo[1′,2′:4,5]pyrazino[2,3-c]pyridazin-8-yl)oxy)-2-methoxybenzyl)piperazin-1-yl)-1-oxoisoindolin-2-yl)piperidine-2,6-dione]	< 100	> 75	< 100	> 75
Cc1cc(O[C@@H]2C[C@@H]3CNc4nnc(-c5cccc(C)c5O)cc4N3C2)ccc1CN1CCN(c2ccc3c(c2)C(=O)N(C2CCC(=O)NC2=O)C3)CC1 (stereo partly drawn) [Example 20, 3-(6-(4-(4-(((6aR,8R)-2-(2-hydroxy-3-methylphenyl)-5,6,6a,7,8,9-hexahydropyrrolo[1′,2′:4,5]pyrazino[2,3-c]pyridazin-8-yl)oxy)-2-methylbenzyl)piperazin-1-yl)-1-oxoisoindolin-2-yl)piperidine-2,6-dione]	< 100	> 75	> 1000	< 50
O=C1CCC(N2Cc3ccc(N4CCN(Cc5cnc(O[C@H]6CN7c8cc(-c9cccc(F)c9O)nnc8NC[C@]7(C(F)F)C6)cn5)CC4)cc3C2=O)C(=O)N1 (stereo partly drawn) [Example 52, 3-(6-(4-((5-(((6aS,8R)-6a-(difluoromethyl)-2-(3-fluoro-2-hydroxyphenyl)-5,6,6a,7,8,9-hexahydropyrrolo[1′,2′:4,5]pyrazino[2,3-c]pyridazin-8-yl)oxy)pyrazin-2-yl)methyl)piperazin-1-yl)1-oxoisoindolin-2-yl)piperidine-2,6-dione]	< 100	> 75	> 1000	< 50
CC[C@]12CNc3nnc(-c4cccc(C)c4O)cc3N1C[C@H](Oc1cc(C)c(CN3CCC(c4ccc5c(c4)C(=O)N([C@H]4CCC(=O)NC4=O)C5)CC3)cn1)C2 [Example 98, (S)-3-(6-(1-((6-(((6aS,8R)-6a-ethyl-2-(2-hydroxy-3-methylphenyl)-5,6,6a, 7,8,9-hexahydropyrrolo[1′,2′:4,5]pyrazino[2,3-c]pyridazin-8-yl)oxy)-4-methylpyridin-3-yl)methyl)piperidin-4-yl)-1-oxoisoindolin-2-yl)piperidine-2,6-dione]	< 100	> 75	< 100	> 75
Cc1cc(O[C@@H]2C[C@H]3CNc4nnc(-c5cccc(F)c5O)cc4N3C2)ccc1CN1CCC(c2ccc3c(c2)C(=O)N(C2CCC(=O)NC2=O)C3)CC1 (stereo partly drawn) [Example 37, 3-(6-(1-(4-(((6aS,8R)-2-(3-fluoro-2-hydroxyphenyl)-5,6,6a,7,8,9-hexahydropyrrolo[1′,2′:4,5]pyrazino[2,3-c]pyridazin-8-yl)oxy)-2-methylbenzyl)piperidin-4-yl)-1-oxoisoindolin-2-yl)piperidine-2,6-dione]	< 100	> 75	< 100	> 75
O=C1CCC(N2Cc3ccc(N4CCN(Cc5ccc(O[C@@H]6C[C@@H]7CNc8nnc(-c9cc(F)cc(F)c9O)cc8N7C6)c(F)c5)CC4)cc3C2=O)C(=O)N1 (stereo partly drawn) [Example 4, 3-(6-(4-(4-(((6aR,8R)-2-(3,5-difluoro-2-hydroxyphenyl)-5,6,6a,7,8,9-hexahydropyrrolo[1′,2′:4,5]pyrazino[2,3-c]pyridazin-8-yl)oxy)-3-fluorobenzyl)piperazin-1-yl)-1-oxoisoindolin-2-yl)piperidine-2,6-dione]	< 100	> 75	< 100	> 75
Cc1c(CN2CCN(c3ccc4c(c3)C(=O)N([C@H]3CCC(=O)NC3=O)C4)CC2)cnc(O[C@H]2CN3c4cc(-c5cccc(F)c5O)nnc4NC[C@@]3(C(F)F)C2)c1C [Example 86, (S)-3-(6-(4-((6-(((6aR,8R)-6a-(difluoromethyl)-2-(3-fluoro-2-hydroxyphenyl)-5,6,6a,7,8,9-hexahydropyrrolo[1′,2′:4,5]pyrazino[2,3-c]pyridazin-8-yl)oxy)-4,5-dimethylpyridin-3-yl)methyl)piperazin-1-yl)-1-oxoisoindolin-2-yl)piperidine-2,6-dione]	< 100	> 75	100 to 1000	< 50
Cc1cccc(-c2cc3c(nn2)NC[C@H]2C[C@@H](Oc4ccc(CN5CCN(c6ccc7c(c6)C(=O)N(C6CCC(=O)NC6=O)C7)CC5)cc4)CN32)c1O (stereo partly drawn) [Example 23, 3-(6-(4-(4-(((6aR,8R)-2-(2-hydroxy-3-methylphenyl)-5,6,6a,7,8,9-hexahydropyrrolo[1′,2′:4,5]pyrazino[2,3-c]pyridazin-8-yl)oxy)benzyl)piperazin-1-yl)-1-oxoisoindolin-2-yl)piperidine-2,6-dione]	< 100	> 75	< 100	50 to 75
O=C1CCC(N2Cc3ccc(C4CCN(Cc5cnc(O[C@H]6CN7c8cc(-c9cccc(F)c9O)nnc8NC[C@@]7(C(F)F)C6)c(F)c5)CC4)cc3C2=O)C(=O)N1 (stereo partly drawn) [Example 88, 3-(6-(1-((6-(((6aR,8R)-6a-(difluoromethyl)-2-(3-fluoro-2-hydroxyphenyl)-5,6,6a,7,8,9-hexahydropyrrolo[1′,2′:4,5]pyrazino[2,3-c]pyridazin-8-yl)oxy)-5-fluoropyridin-3-yl)methyl)piperidin-4-yl)-1-oxoisoindolin-2-yl)piperidine-2,6-dione]	< 100	> 75	100 to 1000	< 50
Cc1nc(O[C@H]2CN3c4cc(-c5cccc(F)c5O)nnc4NC[C@]3(CF)C2)c(F)cc1CN1CCN(c2ccc3c(c2)C(=O)N([C@H]2CCC(=O)NC2=O)C3)CC1 [Example 69, (S)-3-(6-(4-((5-fluoro-6-(((6aS,8R)-2-(3-fluoro-2-hydroxyphenyl)-6a-(fluoromethyl)-5,6,6a,7,8,9-hexahydropyrrolo[1′,2′:4,5]pyrazino[2,3-c]pyridazin-8-yl)oxy)-2-methylpyridin-3-yl)methyl)piperazin-1-yl)-1-oxoisoindolin-2-yl)piperidine-2,6-dione]	< 100	> 75	< 100	> 75
CC(C)c1cc(CN2CCN(c3ccc4c(c3)C(=O)N(C3CCC(=O)NC3=O)C4)CC2)ccc1O[C@@H]1C[C@@H]2CNc3nnc(-c4cc(F)cc(F)c4O)cc3N2C1 (stereo partly drawn) [Example 14, 3-(6-(4-(4-(((6aR,8R)-2-(3,5-difluoro-2-hydroxyphenyl)-5,6,6a,7,8,9-hexahydropyrrolo[1′,2′:4,5]pyrazino[2,3-c]pyridazin-8-yl)oxy)-3-isopropylbenzyl)piperazin-1-yl)-1-oxoisoindolin-2-yl)piperidine-2,6-dione]	< 100	> 75	< 100	> 75
